Results as given in paper PMC10820528, “New Rare Triterpene Glycosides from Pacific Sun Star, Solaster pacificus, and Their Anticancer Activity” (Marine Drugs, 2023).

How the values were obtained:
[1] = tested on: breast cancer MDA-MB-231 cells; assay: cells; type: cell-based
Experimental: (§1) We calculated the inhibiting concentration that cause death of 50% of cells (IC50) and the selectivity index (SI) of the compounds tested (Table 4).
(§2) The human embryonic kidney HEK 293 cells (ATCC® CRL-1573™), breast cancer MDA-MB-231 cells (ATCC® HTB-26™), and colorectal carcinoma HCT 116 cells (ATCC® CCL-247™) were purchased from the American Type Culture Collection (Manassas, VA, USA). The HEK 293 and MDA-MB-231 cells were cultured in DMEM; the HCT 116 cells were cultured in the McCoy’s 5A medium at 37 °C in a humidified atmosphere containing 5% CO2. The culture media were supplemented with 10% heat-inactivated FBS and a 1% penicillin/streptomycin solution. The number of passages was carefully controlled, and contamination by Mycoplasma was monitored on a regular basis.
(§3) Compounds 1–3, and 6–8 were dissolved in sterile dimethyl sulfoxide (DMSO), to prepare stock concentrations of 20 mM. Cells were treated with serially diluted 1–3, 6–8 (0.3–100 µM) (with the culture medium used as diluent) (the final concentration of DMSO was less than 0.5%). The vehicle control was the cells treated with an equivalent volume of DMSO (the final concentration was less than 0.5%) for all of the presented experiments.
(§4) HEK 293 (1.0 × 10^4/200 µL), HCT 116 (1.0 × 10^4/200 µL), and MDA-MB-231 (0.8 × 10^4/200 µL) cells were seeded in a 96-well plate and incubated for 24 h at 37 °C in a CO2 incubator. […] The cells were subsequently incubated with 15 µL of the MTS reagent for 3 h. The absorbance of each well was measured at 490/630 nm on a Power Wave XS microplate reader (BioTek, Winooski, VT, USA).
(§5) The IC50 concentration was calculated using the AAT-Bioquest® online calculator [24]. The selectivity index (SI) was calculated as described previously, using the following formula: SI = IC50 of the compounds for normal cells (HEK 293) divided by IC50 of the same compounds for the human colorectal adenocarcinoma and breast cancer (HCT 116 and MDA-MB-231) cell lines.

[2] = tested on: human embryonic kidney HEK 293 cells; assay: cells; type: cell-based
Experimental: as §1, §2, §3, §4, §5

[3] = tested on: colorectal carcinoma HCT 116 cells; assay: cells; type: cell-based
Experimental: We determined the cytotoxicity of compounds 1–3 and 6–8 against human embryonic kidney HEK 293, colorectal carcinoma HCT 116, and breast cancer MDA-MB-231 cells by the MTS assay, after 24 h of treatment with the compounds. We calculated the inhibiting concentration that cause death of 50% of cells (IC50) and the selectivity index (SI) of the compounds tested (Table 4).
as §2, §3, §4, §5

[4] = tested on: human colorectal carcinoma HCT 116 cells; assay: Soft-agar clonogenic assay, HCT 116; type: cell-based; conditions: 14 days
Experimental: (§6) The soft-agar clonogenic assay was applied in order to assess the effect of compound 2 on the colony formation of human colorectal carcinoma HCT 116 and breast cancer MDA-MB-231 cells. As a result, compound 2 at concentrations of 0.6, 1.25, 2.5, and 5 µM decreased the number of colonies of HCT 116 cells by 11, 24, 52, and 97%, respectively (Figure 6a,b) and MDA-MB-231 cells by 20, 39, 61, and 80%, respectively (Figure 6c,d).
(§7) HCT 116 and MDA-MB-231 cells (2.4 × 10^4/mL) were treated with compound 2 (0.6, 1.25, 2.5, and 5 µM). Then, the cells were placed onto 0.3% BME agar containing 10% FBS, 2 mM L-glutamine, and 25 µg/mL gentamicin. The cultures were maintained at 37 °C in a 5% CO2 incubator for 14 days. The number of colonies was counted under an AE 20 Motic microscope using the ImageJ v. 1.50i software, bundled with 64-bit Java 1.6.0_24 (NIH, Bethesda, MD, USA).

[5] = tested on: breast cancer MDA-MB-231 cells; assay: Soft-agar clonogenic assay, MDA-MB-231; type: cell-based, human; conditions: 14 days
Experimental: as §6, §7

[6] = tested on: human colorectal carcinoma HCT 116 cells; assay: Scratch (wound-healing) assay, HCT 116; type: cell-based; conditions: for suppression of migration of HCT 116 cells: 48 h, compared to control at 48 h; for reduction of migration of HCT 116 cells: 72 h of treatment, compared to control at 72 h
Text: (§8) Metastasis is the leading cause of cancer mortality. The metastatic cascade is a multistep process in which cancer cells are […], from the primary tumor to distant parts and tissues. Migration and plasticity of cancer cells, as well as the environment such as stromal and endothelial cells, are essential in metastasis. In this study, the migration ability (invasive potential) of colorectal carcinoma HCT 116 cells and breast cancer MDA-MB-231 cells and the anti-invasive effect of compound 2 were determined by the “wound-healing”, or scratch, method.
(§9) HCT 116 and MDA-MB-231 cells (3 × 10^5 cells/mL) were seeded in 6-well plates and grown to 80% confluence for 24 h. After removing the culture medium, the cells’ monolayer was scraped with a 200 µL sterile pipette tip, to create a straight scratch. Then, the cells were treated with compound 2 at concentrations of 0.6, 1.25, 2.5, and 5 µM and incubated for 24, 48, and 72 h. All experiments were set up in triplicate for each group. For image analysis, the cell migration into the wound area was photographed at the stages of 0, 24, 48, and 72 h through a Motic AE 20 microscope and using the ImageJ v. 1.50i software, bundled with 64-bit Java 1.6.0_24 (NIH, Bethesda, MD, USA). The cell migration distance was estimated by measuring the width of the wound, and was expressed as the percentage of each control (0 h) in relation to the mean of the wound-closure area.

[7] = tested on: breast cancer MDA-MB-231 cells; assay: Scratch (wound-healing) assay, MDA-MB-231; type: cell-based; conditions: Homo sapiens, 24 h of treatment, compared to control at 24 h, read-out: inhibition of migration of MDA-MB-231 cells
Text: as §8
as §9, with “1.50i software, bundled with 64-bit Java 1.6.0_24 (NIH, Bethesda, MD, USA).” left out

[8] = tested on: AsPC-1 human pancreatic cancer cells; design: method as in PMID 18837899; conditions: by induction of apoptosis; cited from earlier work
[9] = tested on: MDA-MB-231 human breast cancer cells; design: method as in PMID 21741966; conditions: concentration- and time-dependent; cited from earlier work
[10] = tested on: metastatic breast cancer; design: method as in PMID 21761157; conditions: syngeneic murine model of metastatic breast cancer; cited from earlier work

CO[C@@H]1[C@@H](O)[C@H](O[C@@H]2[C@@H](O)[C@H](O[C@H]3[C@H](O)[C@@H](O)[C@H](O[C@H]4[C@H](O[C@H]5CC[C@]6(C)C7=C(CC[C@H]6C5(C)C)[C@]5(C)C[C@H](OC(C)=O)[C@H]([C@@](C)(O)CCC=C(C)C)[C@@]5(CO)CC7)OC[C@@H](O)[C@@H]4O)O[C@@H]3C)O[C@H](CO)[C@H]2O)OC[C@H]1O [Compound 2, (20S)-3β-O-[3-O-methyl-β-D-xylopyranosyl-(1→3)-β-D-glucopyranosyl-(1→4)-β-D-quinovopyranosyl-(1→2)-β-D-xylopyranosyl]-16β-acetoxy,18,20-dihydroxy-5α-lanosta-8(9),24-diene]
cytotoxic activity in words, MDA-MB-231 [1]: Moderate
IC50 ([1]; Homo sapiens, MDA-MB-231, MTS assay, 24 h of cell incubation, mean ± SD, read-out: IC50, MDA-MB-231): 15.5 ± 1.6 µM
SI (selectivity index), MDA-MB-231 ([1]; mean IC50 against normal cells (HEK 293)/mean IC50 against MDA-MB-231, 24 h): 1.2
cytotoxic activity in words, HEK 293 [2]: Moderate
IC50 ([2]; Homo sapiens, HEK293, MTS assay, 24 h of cell incubation, mean ± SD, read-out: IC50, HEK 293): 18.5 ± 2.5 µM
cytotoxic activity in words, HCT 116 [3]: Moderate
IC50 ([3]; Homo sapiens, HCT-116, MTS assay, 24 h of cell incubation, mean ± SD, read-out: IC50, HCT 116): 18.6 ± 1.4 µM
SI (selectivity index), HCT 116 ([3]; mean IC50 against normal cells (HEK 293)/mean IC50 against HCT 116, 24 h): 1
decrease of the number of colonies, HCT 116 ([4]; 0.6 µM): 11%
decrease of the number of colonies, HCT 116 ([4]; 1.25 µM): 24%
decrease of the number of colonies, HCT 116 ([4]; 2.5 µM): 52%
decrease of the number of colonies, HCT 116 ([4]; 5 µM): 97%
decrease of the number of colonies, MDA-MB-231 ([5]; 0.6 µM): 20%
decrease of the number of colonies, MDA-MB-231 ([5]; 1.25 µM): 39%
decrease of the number of colonies, MDA-MB-231 ([5]; 2.5 µM): 61%
decrease of the number of colonies, MDA-MB-231 ([5]; 5 µM): 80%
suppression of migration of HCT 116 cells ([6]; 0.6 µM): 8%
reduction of migration of HCT 116 cells ([6]; 0.6 µM): 3%
suppression of migration of HCT 116 cells ([6]; 1.25 µM): 18%
reduction of migration of HCT 116 cells ([6]; 1.25 µM): 3%
suppression of migration of HCT 116 cells ([6]; 2.5 µM): 42%
reduction of migration of HCT 116 cells ([6]; 2.5 µM): 23%
suppression of migration of HCT 116 cells ([6]; 5 µM): 41%
reduction of migration of HCT 116 cells ([6]; 5 µM): 41%
inhibition at 0.6 µM ([6]; Homo sapiens, HCT-116, 0.6 µM, 24 h of treatment, compared to control 24 h, read-out: inhibition of migration of HCT 116 cells): 5%
inhibition at 1.25 µM ([6]; Homo sapiens, HCT-116, 1.25 µM, 24 h of treatment, compared to control 24 h, read-out: inhibition of migration of HCT 116 cells): 17%
inhibition at 2.5 µM ([6]; Homo sapiens, HCT-116, 2.5 µM, 24 h of treatment, compared to control 24 h, read-out: inhibition of migration of HCT 116 cells): 30%
inhibition at 5 µM ([6]; Homo sapiens, HCT-116, 5 µM, 24 h of treatment, compared to control 24 h, read-out: inhibition of migration of HCT 116 cells): 37%
inhibition at 5 µM [7]: 15%

CO[C@@H]1[C@@H](O)[C@H](O[C@@H]2[C@@H](O)[C@H](O[C@H]3[C@H](O)[C@@H](O[C@@H]4OC[C@@H](O)[C@H](O)[C@H]4O)[C@H](O[C@H]4[C@H](OC5CC[C@]6(C)[C@H]7CCC89C(=O)O[C@@](C)(CCCC(C)C)C8[C@@H](OC(C)=O)C[C@@]9(C)C7=CC[C@H]6C5(C)C)OC[C@@H](OS(=O)(=O)O)[C@@H]4O)O[C@@H]3C)OC[C@H]2O)O[C@H](CO)[C@H]1O (some centres unmarked) [frondoside A]
proliferation of AsPC-1 cells [8]: inhibits proliferation
viability of MDA-MB-231 cells [9]: decreases the viability
antimetastatic effect [10]: potent antimetastatic effect
